± gives the standard deviation of the averaged measurements.
Columns and labels:
Settings in all cases: 72 h
Caco-2 [1] = assay: cell viability relative to DMSO; higher = less toxic
U2OS [2] = assay: as above
Calu-3 [3] = assay: as above
HepG2 [4] = assay: as above
Vero E6 [5] = assay: as above
Caco-2 [6] = assay: relative viability EC50 (midpoint between 100% and the lowest measured viability); higher = less toxic
U2OS [7] = assay: as above
Calu-3 [8] = assay: as above
HepG2 [9] = assay: as above
Vero E6 [10] = assay: as above
Caco-2 [11] = assay: drug sensitivity score (DSS) for viability; higher = more toxic; extreme values may be limits of the assay
U2OS [12] = assay: as above
Calu-3 [13] = assay: as above
HepG2 [14] = assay: as above
Vero E6 [15] = assay: as above

SMILES | cell viability (Caco-2 [1]; 1 nM) | cell viability (Caco-2 [1]; 10 nM) | cell viability (Caco-2 [1]; 100 nM) | cell viability (Caco-2 [1]; 1000 nM) | cell viability (Caco-2 [1]; 10000 nM) | cell viability (U2OS [2]; 1 nM) | cell viability (U2OS [2]; 10 nM) | cell viability (U2OS [2]; 100 nM) | cell viability (U2OS [2]; 1000 nM) | cell viability (U2OS [2]; 10000 nM) | cell viability (Calu-3 [3]; 1 nM) | cell viability (Calu-3 [3]; 10 nM) | cell viability (Calu-3 [3]; 100 nM) | cell viability (Calu-3 [3]; 1000 nM) | cell viability (Calu-3 [3]; 10000 nM) | cell viability (HepG2 [4]; 1 nM) | cell viability (HepG2 [4]; 10 nM) | cell viability (HepG2 [4]; 100 nM) | cell viability (HepG2 [4]; 1000 nM) | cell viability (HepG2 [4]; 10000 nM) | cell viability (Vero E6 [5]; 1 nM) | cell viability (Vero E6 [5]; 10 nM) | cell viability (Vero E6 [5]; 100 nM) | cell viability (Vero E6 [5]; 1000 nM) | cell viability (Vero E6 [5]; 10000 nM) | relative viability EC50 (Caco-2 [6]) | relative viability EC50 (U2OS [7]) | relative viability EC50 (Calu-3 [8]) | relative viability EC50 (HepG2 [9]) | relative viability EC50 (Vero E6 [10]) | drug sensitivity score (Caco-2 [11]) | drug sensitivity score (U2OS [12]) | drug sensitivity score (Calu-3 [13]) | drug sensitivity score (HepG2 [14]) | drug sensitivity score (Vero E6 [15])
NC(=O)c1ccc2[nH]ccc2c1 [SD-169] | 94.7% | 90.8% | 100% | 92.9% | 99.2% | 104% | 104% | 102% | 98.9% | 101% | 103% | 87.6% | 98.5% | 99.6% | 101% | 93.7% | 92.4% | 102% | 102% | 83.4% | 98.8% | 99.1% | 92.6% | 97.6% | 89.8% | > 10 µM | > 10 µM | > 10 µM | > 10 µM | > 10 µM | 0 | 0 | 0 | 0.3 | 0
O=C1CCC[C@@H]2[C@H]3CCCN4CCC[C@@H](CN12)[C@@H]34 [matrine] | 97.6% | 94% | 94.9% | 91.4% | 90.4% | 96.1% | 96.4% | 96.4% | 93.7% | 99.1% | 97% | 93.5% | 100% | 98.5% | 100% | 89.9% | 108% | 85.8% | 111% | 103% | 96.8% | 98.7% | 93.3% | 99.1% | 104% | > 10 µM | > 10 µM | > 10 µM | > 10 µM | > 10 µM | 0 | 0 | 0 | 0 | 0
COc1cc(C[C@@H](CO[C@@H]2O[C@H](CO)[C@@H](O)[C@H](O)[C@H]2O)[C@H](CO[C@@H]2O[C@H](CO)[C@@H](O)[C@H](O)[C@H]2O)Cc2ccc(O)c(OC)c2)ccc1O [secoisolariciresinol-diglucoside] | 100% | 93.6% | 96.7% | 99.4% | 108% | 94% | 96.7% | 101% | 101% | 97.9% | 103% | 92.9% | 87.4% | 103% | 102% | 98.7% | 104% | 102% | 111% | 110% | 95.6% | 101% | 93.6% | 97.8% | 110% | > 10 µM | > 10 µM | > 10 µM | > 10 µM | > 10 µM | 0 | 0 | 0 | 0 | 0
Cc1ncc(-c2ccnc(Nc3ccc(S(C)(=O)=O)cc3)n2)n1C(C)C [AZD5438] | 97.1% | 97.8% | 104% | 96.8% | 27.7% | 104% | 105% | 108% | 102% | 10.1% | 98.9% | 97.1% | 104% | 106% | 38.1% | 100% | 95% | 106% | 77.3% | 6.7% | 97.6% | 102% | 96.4% | 91.6% | 12.6% | 2.84 µM | 3.29 µM | 3.65 µM | 1.58 µM | 2.36 µM | 4.4 | 4.8 | 2.9 | 8.7 | 6.2
CC(Oc1ccc(O)cc1)(P(=O)(O)O)P(=O)(O)O | 110% | 98.7% | 98% | 87.1% | 104% | 104% | 99.5% | 105% | 98% | 100% | 106% | 88.6% | 103% | 84.8% | 97.1% | 106% | 95.4% | 97.6% | 99.2% | 102% | 96.5% | 104% | 97.7% | 98.7% | 95.8% | > 10 µM | > 10 µM | > 10 µM | > 10 µM | > 10 µM | 0 | 0 | 0 | 0 | 0
CN1C(=O)C(N2CCCCC2)S/C1=C\C(=O)O (stereo not given) [ozolinone] | 113% | 96.7% | 92.1% | 105% | 114% | 95.5% | 97.5% | 102% | 99.6% | 100% | 102% | 93.9% | 94.1% | 93.5% | 95% | 89.5% | 107% | 104% | 87.1% | 105% | 97.1% | 103% | 97% | 102% | 117% | > 10 µM | > 10 µM | > 10 µM | > 10 µM | > 10 µM | 0 | 0 | 0 | 0 | 0
CN1C(CSCC(F)(F)F)Nc2cc(Cl)c(S(N)(=O)=O)cc2S1(=O)=O (stereo not given) [polythiazide] | 88.1% | 90.5% | 95.2% | 94.9% | 93% | 98.4% | 97.5% | 104% | 96.2% | 100% | 95.7% | 98.5% | 107% | 101% | 109% | 93.7% | 110% | 99.6% | 103% | 106% | 91.7% | 98.8% | 86.6% | 96.8% | 108% | > 10 µM | > 10 µM | > 10 µM | > 10 µM | > 10 µM | 0 | 0 | 0 | 0 | 0
CCC[N+]12[C@H](O)[C@@H](CC)[C@@H]3C[C@H]1[C@@H]1N(C)c4ccccc4[C@]14C[C@H]2[C@@H]3[C@H]4O [neo-gilurytmal] | 103% | 99.3% | 92.6% | 86.2% | 93.1% | 100% | 95.7% | 101% | 91.5% | 101% | 104% | 98% | 96.4% | 100% | 91.4% | 93.4% | 99.1% | 92.3% | 97.8% | 104% | 100% | 99.4% | 98.4% | 97.4% | 95.7% | > 10 µM | > 10 µM | > 10 µM | > 10 µM | > 10 µM | 1.3 | 0 | 0 | 0 | 0
Cn1cc(C2=C(c3cn(CCCSC(=N)N)c4ccccc34)C(=O)NC2=O)c2ccccc21 [bisindolylmaleimide-IX] | 100% | 97.7% | 101% | 94.9% | 25.3% | 105% | 100% | 106% | 103% | 5.7% | 112% | 96.4% | 100% | 91.2% | 18.1% | 98.6% | 104% | 105% | 96.8% | 5.1% | 91.7% | 101% | 89.3% | 92.6% | 15% | 2.61 µM | 3.32 µM | 2.28 µM | 2.92 µM | 2.45 µM | 4.9 | 5 | 6 | 5.7 | 5.9
Cn1cnc2c(NCc3ccccc3)nc(NCCO)nc21 [olomoucine] | 97.5% | 93.3% | 92.5% | 98.7% | 106% | 103% | 101% | 103% | 96.9% | 108% | 102% | 97.9% | 96% | 99.9% | 105% | 106% | 106% | 96.4% | 112% | 114% | 93% | 98.1% | 96% | 99.7% | 104% | > 10 µM | > 10 µM | > 10 µM | > 10 µM | > 10 µM | 0 | 0 | 0 | 0 | 0
Fc1ccc(-c2c3cccc(C(F)(F)F)c3nn2Cc2ccc(F)cc2Cl)cc1 [LXR-623] | 102% | 92% | 94.5% | 96.5% | 83.2% | 102% | 98.2% | 102% | 97.1% | 97.4% | 101% | 97.3% | 97% | 93.7% | 91.2% | 95.5% | 94.4% | 87.9% | 90.2% | 77.2% | 105% | 105% | 102% | 98% | 98.6% | > 10 µM | > 10 µM | > 10 µM | > 10 µM | > 10 µM | 0.2 | 0 | 0 | 1.9 | 0
COc1ccccc1C(=O)Nc1cc2c(cc1N1CCCC1)n(C)c(=O)n2C [PFI-4] | 104% | 99.8% | 92.7% | 89.1% | 77.6% | 101% | 101% | 97.6% | 99.4% | 92% | 93.7% | 104% | 94.7% | 106% | 98% | 92.7% | 93.1% | 94.1% | 96.5% | 91.5% | 99.2% | 102% | 96.2% | 92.2% | 89% | > 10 µM | > 10 µM | > 10 µM | > 10 µM | > 10 µM | 1.6 | 0 | 0 | 0 | 0
COc1ccc(C2CNC(=O)C2)cc1OC1CCCC1 (stereo not given) [rolipram] | 95.2 ± 7.2% | 96.4 ± 2.8% | 97.7 ± 5.3% | 98.8 ± 7.4% | 110 ± 4.9% | 96.2 ± 1.5% | 97 ± 4.4% | 96.1 ± 2.3% | 99.1 ± 0.14% | 101 ± 2.9% | 98.2 ± 12% | 97.6 ± 12% | 103 ± 5.5% | 98.4 ± 3.5% | 103 ± 1.6% | 102 ± 3.5% | 102 ± 6.4% | 101 ± 5.8% | 106 ± 5.5% | 101 ± 2.2% | 93.6 ± 10% | 95.1 ± 8.9% | 94.4 ± 4.2% | 96.8 ± 4.5% | 102 ± 4.8% | > 10 µM | > 10 µM | > 10 µM | > 10 µM | > 10 µM | 0 | 0 | 0 | 0 | 0.0667 ± 0.12
CCN1C(C)(C)CC(Oc2ccc(C(=O)Nc3ccc(NC(=O)Nc4cc(C(C)(C)C)on4)cc3)nc2)CC1(C)C [AC-710] | 100% | 89.4% | 100% | 94.4% | 88.2% | 98.9% | 97% | 98.9% | 99.9% | 94.3% | 108% | 105% | 97.4% | 89.4% | 94% | 100% | 97.7% | 94.1% | 105% | 87.3% | 101% | 106% | 99.9% | 104% | 96.8% | > 10 µM | > 10 µM | > 10 µM | > 10 µM | > 10 µM | 0 | 0 | 0.2 | 0 | 0

From the supplement of paper PMC13380429
